Results taken from patent US20100286073A1, “COMPOUNDS AND METHODS FOR PHARMACEUTICAL USE” (priority 2007, published 2010).
“Also recorded” adds a separate entry of the source.

Tests used:
[1] = system: human subjects diagnosed with fibromyalgia syndrome; assay: Patient history of prior treatment of the fibromyalgia subjects (Examples 1-3); conditions: for pain relief by prior OTC analgesics: codeine at low dose; for side effects of prior prescription analgesics / pain relief by prior prescription analgesics: codeine at high dose; for pain relief by prior prescription analgesics: at best
Excerpt: (§1) Patient History of Prior Treatment: A patient history was taken. Prior treatments targeting pain relief were as follows.
Prior treatments targeting other symptoms included the following. The subject had taken tegaserod for irritable bowel syndrome. Additional prior therapies included sertraline for depression, and zolpidem for insomnia. The subject has also taken proclorperazine for dizziness.
Prior treatments targeting other symptoms included the following. The subject had taken tegaserod for irritable bowel syndrome. Additional prior therapies included sertraline for depression, and zolpidem for insomnia.
as §1
Prior treatments targeting other symptoms included the following. The subject had taken tegaserod for irritable bowel syndrome. Additional prior therapies included zolpidem, midazolam, zopiclone, and chlorpheniramine for insomnia.

[2] = system: human subjects diagnosed with fibromyalgia syndrome; assay: Treatment of human subjects diagnosed with fibromyalgia with trimetazidine (Examples 1-4, clinical case reports); type: in vivo
Protocol: A person presented with long-standing complaints (15 years) of widespread pain—headaches, upper and lower back pain, neck pain, elbow and knee pain bilaterally, calf pain bilaterally and jaw pain. General non-specific symptoms were fatigue, symptoms of irritable bowel syndrome (constipation-type), insomnia, cognitive and memory impairment, morning stiffness, dizziness, irritability and depression.
Treatment Regime: The subject was administered trimetazidine (modified release formulation, Vastarel® MR), 35 mg orally, twice daily, originally for treatment of their cardiac condition.
Treatment Regime: The subject was administered trimetazidine (modified release formulation, Vastarel® MR), 35 mg orally, twice daily.
The following is a synopsis of the clinical response of each of eight (8) patients diagnosed with FMS, each of whom received treatment with trimetazidine MR (Vastarel® MR), 35 mg orally, twice daily, for a period of at least four (4) weeks.

[3] = target: long-chain isoform of 3-ketoacyl coenzyme A thiolase (3KCT) (Homo sapiens, UniProt P55084); conditions: thereby reducing fatty acid oxidation; Kantor et al., Circ Res 2000; cited from earlier work
[4] = Examples 1-2, within 72 h (Ex. 1) or 24 h (Ex. 2) of starting 35 mg orally twice daily, patient-reported
[5] = Examples 1-3, within 72 h (Ex. 1) or 24 h (Ex. 2, 3) of starting 35 mg orally twice daily, patient-reported
[6] = Short Term i.e. within 72 hours, trimetazidine MR 35 mg orally twice daily, FMS patient, Example 4
[7] = Short Term i.e. within 72 hours, trimetazidine MR 35 mg orally twice daily, FMS patients, Example 4
[8] = after four (4) months of continuous use, 35 mg orally twice daily
[9] = examination after at least four weeks of trimetazidine MR 35 mg orally twice daily
[10] = examination after four weeks of trimetazidine MR 35 mg orally twice daily

long-chain isoform of 3-ketoacyl coenzyme A thiolase (3KCT), sequence (P55084 34-474): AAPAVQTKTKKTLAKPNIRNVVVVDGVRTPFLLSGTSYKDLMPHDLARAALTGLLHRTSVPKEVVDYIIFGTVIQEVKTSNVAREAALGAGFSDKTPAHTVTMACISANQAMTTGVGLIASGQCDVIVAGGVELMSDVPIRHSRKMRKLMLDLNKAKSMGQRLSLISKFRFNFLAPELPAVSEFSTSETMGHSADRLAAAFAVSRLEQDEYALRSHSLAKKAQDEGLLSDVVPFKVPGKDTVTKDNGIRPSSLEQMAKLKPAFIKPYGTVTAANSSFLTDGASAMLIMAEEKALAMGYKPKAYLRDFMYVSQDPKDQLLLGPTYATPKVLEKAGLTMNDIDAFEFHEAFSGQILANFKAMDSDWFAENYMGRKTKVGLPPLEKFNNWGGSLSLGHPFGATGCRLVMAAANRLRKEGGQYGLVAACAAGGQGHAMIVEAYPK
long-chain isoform of 3-ketoacyl coenzyme A thiolase (3KCT), sequence (P40939 37-763 partner): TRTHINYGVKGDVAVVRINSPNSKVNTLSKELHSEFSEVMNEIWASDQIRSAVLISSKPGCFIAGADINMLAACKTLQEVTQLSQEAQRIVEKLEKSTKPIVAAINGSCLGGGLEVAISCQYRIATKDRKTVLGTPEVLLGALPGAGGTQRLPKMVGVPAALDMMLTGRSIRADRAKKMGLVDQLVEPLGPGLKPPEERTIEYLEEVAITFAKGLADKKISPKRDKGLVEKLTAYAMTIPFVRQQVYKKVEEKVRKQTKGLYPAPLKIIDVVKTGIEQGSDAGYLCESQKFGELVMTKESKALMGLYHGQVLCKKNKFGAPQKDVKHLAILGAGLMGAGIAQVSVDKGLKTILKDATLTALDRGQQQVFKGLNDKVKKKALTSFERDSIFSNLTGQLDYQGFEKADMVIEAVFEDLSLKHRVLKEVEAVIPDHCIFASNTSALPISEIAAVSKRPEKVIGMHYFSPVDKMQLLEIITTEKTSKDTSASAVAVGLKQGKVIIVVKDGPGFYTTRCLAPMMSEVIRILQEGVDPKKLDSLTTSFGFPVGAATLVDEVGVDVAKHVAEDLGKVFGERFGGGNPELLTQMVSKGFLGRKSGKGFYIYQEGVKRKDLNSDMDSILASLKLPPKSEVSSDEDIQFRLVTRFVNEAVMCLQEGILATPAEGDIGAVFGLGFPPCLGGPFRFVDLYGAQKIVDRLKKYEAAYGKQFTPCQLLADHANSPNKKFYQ

For `COc1ccc2c3c1O[C@H]1[C@@H](O)C=C[C@H]4[C@@H](C2)N(C)CC[C@@]341` [codeine], the “pain relief by prior OTC analgesics” value [1] was “no pain relief whatsoever; also recorded: negligible pain relief”, the “side effects of prior prescription analgesics” value (“side effects” below) [1] was “frequently accompanied by unpleasant side effects” and the “pain relief by prior prescription analgesics” value [1] was “mild to moderate and very temporary relief”.

In the case of `CCN(CC)CC(=O)Nc1c(C)cccc1C` [lidocaine], the “localized pain relief by prior trigger point injections” value ([1]; injections repeated at 2 to 4 week intervals, extremely painful procedures) is reported as “best localized pain relief”.

For `CCOC(=O)C1(c2ccccc2)CCN(C)CC1` [meperidine], the “side effects” value [1] was “frequently accompanied by unpleasant side effects” and the “pain relief by prior prescription analgesics” value [1] was “mild to moderate and very temporary relief”.

For `CC(=O)Nc1ccc(O)cc1` [paracetamol], the “pain relief by prior OTC analgesics” value [1] was “no pain relief whatsoever; also recorded: negligible pain relief”.

In the case of `COc1cccc(C2(O)CCCCC2CN(C)C)c1` (centres unmarked) [tramadol], the “side effects” value [1] is reported as “frequently accompanied by unpleasant side effects” and the “pain relief by prior prescription analgesics” value [1] is reported as “mild to moderate and very temporary relief”.

For `COc1ccc(CN2CCNCC2)c(OC)c1OC` [trimetazidine, 1-(2,3,4-trimethyloxybenzyl)piperazine], the “time after commencing therapy at which benefits were first noticed” value ([2]; Example 1, 35 mg orally twice daily) was at most 24 h, the level of irritability ([2]; Example 1, within 72 hours of starting 35 mg orally twice daily, patient-reported) was “markedly reduced” and the clarity of thoughts [2, 4] was “markedly increased”. For the same molecule, the “short and long term memory” value [2, 4] was “improvement”, the energy levels [2, 5] was “very significantly increased” and the mood [2, 5] was “very improved”. The “regularity of bowel habits” value [2, 5] was “markedly improved”, the sleep patterns [2, 5] was “very significantly improved” and the “residual pain after reduction of widespread pain” value ([2]; Examples 1-3, within 72 h (Ex. 1) or 24 h (Ex. 2, 3) of starting treatment) was “minimal residual pain reported at the left medial knee; also recorded: minimal residual pain reported at the left hip; also recorded: residual mild headache”. For the same molecule, the sense of well-being ([2]; Medium/Long Term, after five (5) or four (4) weeks of daily use) was “increased sense of”, the “sustained improvement of all symptoms” value ([2]; Medium/Long Term, after five (5) weeks of daily use, 35 mg orally twice daily, patient-reported) was “dramatic 95%” and the energy levels ([2]; Medium/Long Term, after four (4) weeks of daily use) was “sustained increase”. The “sustained improvement of symptoms” value ([2]; Medium/Long Term, after nine (9) weeks of daily use, 35 mg orally twice daily, patient-reported) was 90% sustained, the “sustained improvement of symptoms” value ([2]; Medium/Long Term, after seven (7) weeks of daily use, 35 mg orally twice daily, patient-reported) was “dramatic 95%” and the “sustained improvement of symptoms” value ([2]; Medium/Long Term, after six (6) weeks of daily use, 35 mg orally twice daily, patient-reported) was “(95%) sustained”. The “Chest Pain” value [2, 6] was “Absence of Chest”, the Memory [2, 6] was “Improved Memory” and the Nausea [2, 6] was “Absence of Nausea”. For the same molecule, the “Nausea and Vomiting” value [2, 6] was “Absence of Nausea”, the nervousness [2, 6] was “No Nervousness” and the “reduction in IBS and Acid Reflux Symptoms” value [2, 6] was 90% reduction in. For the same molecule, the reduction in irritability [2, 6] was 90% reduction in, the “reduction in severity of Pre-Menstrual Cramps” value [2, 6] was 70% reduction in and the “reduction in symptoms of Irritable Bowel Syndrome” value [2, 6] was 90% reduction in. For the same molecule, the “symptoms of Irritable Bowel Syndrome” value [2, 6] was “Markedly reduced”, the “alertness and clarity of thinking” value [2, 7] was “Increased alertness” and the dizziness/dizzy spells [2, 7] was “Infrequent dizzy; also recorded: Absence of”. For the same molecule, the “energy (feeling)” value [2, 7] was “Energetic feeling”, the “improved mood and concentration” value [2, 7] was “Significantly” and the “improved mood and memory” value [2, 7] was “Significantly”. For the same molecule, the “reduction in widespread pain and trigger point pain” value [2, 7] was 90% reduction in, the sleep [2, 7] was “Consistent restful” and the “quality of life at follow-up” value [2, 8] was “same marked improvement”. For the same molecule, the “relapse of symptoms at follow-up” value [2, 8] was “no relapse”, the “quality of life at follow-up” value ([2]; after six (6) months of continuous use, 35 mg orally twice daily) was “same marked improvement” and the “pain at trigger points at follow-up” value ([2]; after six (6) months of continuous use, in reaction to stress or infections) was “infrequent episodes of pain”. The “EXAMINATION FINDINGS: affect” value [2, 9] was “markedly improved”, the “EXAMINATION FINDINGS: resolution of trigger point tenderness” value [2, 9] was “Sustained” and the “EXAMINATION FINDINGS: affect and energy levels” value [2, 10] was “markedly improved”. For the same molecule, the “EXAMINATION FINDINGS: improvement in physical appearance” value [2, 10] was “obvious marked”, the “EXAMINATION FINDINGS: improved energy levels” value ([2]; examination after ten weeks of trimetazidine MR 35 mg orally twice daily) was “Markedly” and the “improvement in all symptoms and signs of fibromyalgia” value ([2]; within 24 hours of starting treatment, 35 mg orally twice daily) was “vast improvement”. The “reduction in widespread pain” value ([2]; within 24 hours of starting treatment, trimetazidine MR 35 mg orally twice daily, FMS patient, patient-reported) was 95%, the “improvement in all symptoms and signs of fibromyalgia” value ([2]; within 72 hours of starting treatment, 35 mg orally twice daily) was “vast improvement” and the “reduction in widespread pain” value ([2]; within 72 hours of starting treatment, trimetazidine MR (Vastarel MR) 35 mg orally twice daily, FMS patient, patient-reported) was 90%. The “reduction in widespread pain” value ([2]; within 72 hours of starting treatment, trimetazidine MR (Vastarel MR) 35 mg orally twice daily, FMS patient, patient-reported, listed as Trimetazidine) was 90% reduction in and the “effect on long-chain 3-ketoacyl coenzyme A thiolase (3KCT)” value [3] was “inhibits”.
